Results on two compounds are retold here after US20250090562A1, “METHODS, COMPOSITIONS AND USES RELATED TO THE TREATMENT AND PREVENTION OF LEIGH’S SYNDROME” (Stealth BioTherapeutics Inc., priority 2023, published 2025).

Like-named read-outs stand apart in the source and are kept apart here.

Broadly, the AUC(0-t) is the area under the concentration-time curve up to a stated or last time point. A lower AUC(0-t) goes with low exposure. Broadly, the Cmax is the maximum level reached in the sampled fluid or tissue. For orientation: Tmax means the time from dosing to the highest level.

Data set [1] relates to 15-lipoxygenase (15-LO). In words: 15(S)-HETE ELISA following erastin treatment, Leigh fibroblasts. The class given is cell-based, human. As to conditions: erastin + FAC + AA, 1 μM compound, 24 h. The procedure: Samples for the 15(S)-HETE ELISA were generated by the Erastin Assay described above. Healthy or Leigh fibroblasts were resuspended in assay medium, seeded at 200,000 cells/well in a clear, tissue culture-treated, 24-well plate, and incubated at 37° C. for 24 hours. Supernatant was aspirated from each well.
Ferroptosis was induced using erastin at 2 μM concentration. 15(S)-HETE, which is a metabolite of arachidonic acid and generated by activity of 15-LO, was measured using a commercially available ELISA kit. Data were normalized to the “No treatment” group, which represented fibroblasts that were not injured with erastin.
(ELISA stands for enzyme-linked immunosorbent assay.)

The format of data set [2] is in vivo. The following applies: rat, single dose 1 mg/kg IV, 10 mg/kg SC or 10 mg/kg PO. The procedure: • Animals: Rat/Sprague Dawley/Male/Naive 225-250 grams were received from an approved vendor. • Animals were fasted overnight prior to dose administration. Food was returned following the 2 hour sample collection. • Body weights were recorded prior to dose administration. The volume of each dose delivered (ml/kg) was based on each individual animal's body weight. • This was a single dose, serial blood collection study with tissues collected for possible future analysis. • Doses were administered in accordance with test facility standard operating procedures. […].
• Blood samples were collected via jugular vein catheter (JVC) and transferred to tubes with appropriate anticoagulant. The tubes were stored on wet ice until processed to plasma by centrifugation (3500 rpm at 5° C. for 10 minutes) within 20 minutes of collection. Sample aliquots of 100 μL were transferred into individual uniquely labeled matrix tubes containing 10 μL of 5% (v/v) formic acid aqueous solution and stored at nominal −80° C. until analyzed by LC/MS/MS. • Immediately following final serial blood collection (24 hours, JVC), animals were sacrificed and perfused with cold PBS. […]

Data set [3] is described as follows: Compound 4 pharmacokinetics and tissue exposure, five daily subcutaneous doses, mice. The format is in vivo, C57BL/6 mice. The procedure:
• Animals were allowed to acclimate to the test facility for at least two days prior to the beginning of the study. • Study animals were male C57BL/6 mice weighing approximately 18-25 grams each. • Fasting was not required for the study. • Body weights were recorded prior to dose administration. The volume of each dose delivered (mL/kg) was based on each individual animal's body weight. • This was a multiple dose serial PK dosed subcutaneously once daily over 5 days. Compound 4 was administered to two groups: Group 1 at 60 mg/kg and Group 2 at 180 mg/kg (6 and 18 mg/mL, 15% Kolliphor ELP in PBS, 10 mL/kg; N=3/group). Serial PK timepoints were collected following the 5th and final dose.
• Serial blood samples were collected via tail vein snip. • Blood samples were collected into tubes with anticoagulant. Tubes were stored on wet ice until processed to plasma by centrifugation (3500 rpm at 5° C. for 10 minutes) within 20 minutes of collection. Sample aliquots of 20 μL were transferred into individual uniquely labeled matrix tubes and stored at nominal −80° C. until transferred to analytical chemistry for analysis. • Immediately following each terminal blood collection for all groups, animals were sacrificed and perfused with cold PBS. Heart and brain tissues were collected. • Perfusion methodology: The chest was opened lengthwise using scissors to expose the thoracic organs. A scalpel was used to cut a small hole into the left ventricle just large enough to insert a cannula tip. The cannula was attached to an appropriately sized tubing and syringe prefilled with cold PBS and primed to remove any air. The tip of the cannula was inserted into the left ventricle and directed into the ascending aorta. Hemostats were used to help keep the cannula in place during perfusion. A second hole was made in the right atrium to allow for the escape of fluid during the return circulation. The syringe attached to the cannula was manually pushed or placed into a pump programmed to infuse at 10 mL/min. Animals were perfused for a minimum of 3 minutes or more if needed (until the exiting fluid was clear).
• N=3/group; • Collections relative to the final dose: • Plasma: 60 mg/kg at 2 and 24 hr; 180 mg/kg at predose, 2, 8, and 24 hr • Heart and Brain: 24 hr (terminal, PBS-perfused); • RGA 2 bioanalysis. […]

Where [4] appears, read: male, C57BL/6, mouse, in vivo, sc.
Setting [5] is: male, C57BL/6, mouse, in vivo, sc, 60 mg/kg.
Where [6] appears, read: male, C57BL/6, mouse, in vivo, sc, 60 mg/kg, 24 h.
Setting [7] is: male, C57BL/6, mouse, in vivo, sc, 180 mg/kg.
Where [8] appears, read: male, C57BL/6, mouse, in vivo, sc, 180 mg/kg, 24 h.

In the case of `CC1=C(C)C(=O)C(CC[C@@](C)(O)CC/C=C(\C)CCC=C(F)F)=C(C)C1=O` [Compound 2], the “relative 15-LO inhibition (comparison between test articles)” value in data set [1] is “slightly less effective”. Further, in data set [2], the tolerability result is listed as “well tolerated”. Further, the “delivery by mode of administration” value in data set [2] (preliminary) was “effectively administered”.
On to `CC1=C(C)C(=O)C(CC[C@](C)(O)CCCCCCCCC(F)(F)F)=C(C)C1=O` [Compound 4], for which the tolerability result in data set [3] (60 and 180 mg/kg SC over 5 days, 10 mL/kg QD, 15% Kolliphor ELP in PBS) is “well tolerated”. Further, the “Geomean C24” value in data set [3] (male, C57BL/6, mouse, in vivo, 180 mg/kg, 24 h) worked out at 602 ng/g. Further, the concentration at 24 h in data set [3] (male, C57BL/6, mouse, in vivo, 180 mg/kg, Geomean C24) came out at 514 ng/g; in data set [3] (male, C57BL/6, mouse, in vivo, sc, 60 mg/kg, Concentration in C57BL/6 Mouse Tissue, Geomean), 192 ng/g; in data set [3] (male, C57BL/6, mouse, in vivo, sc, 60 mg/kg, Concentration in C57BL/6 Mouse Tissue, Mean), 212 ng/g; in data set [3] (male, C57BL/6, mouse, in vivo, sc, 180 mg/kg, C24), 266 ng/mL; in data set [3] (male, C57BL/6, mouse, in vivo, sc, 180 mg/kg, Concentration in C57BL/6 Mouse Tissue, Geomean) it was 514 ng/g; in data set [3] (male, C57BL/6, mouse, in vivo, sc, 180 mg/kg, Concentration in C57BL/6 Mouse Tissue, Mean), 529 ng/g. Also, the time to steady-state in data set [3] (setting [4]) is on record as at most 5 days. The AUC(0-t) is 15400 ng·h/mL in data set [3] (setting [5]) and 49100 ng·h/mL in data set [3] (setting [7]). For the same compound, the AUClast/Dose in data set [3] (setting [5]) is 257 kg·ng·h/mL/mg; in data set [3] (setting [7]), 273 kg·ng·h/mL/mg. Further, the Cmax in data set [3] (setting [5]) came out at 1440 ng/mL; in data set [3] (male, C57BL/6, mouse, in vivo, sc, 60 mg/kg, Cmax), 1810 ng/mL; in data set [3] (male, C57BL/6, mouse, in vivo, sc, 180 mg/kg, Cmax), 4800 ng/mL. For the same compound, the “Concentration in C57BL/6 Mouse Tissue, Geomean” value in data set [3] (setting [6]) came to 225 ng/g; in data set [3] (setting [8]), 602 ng/g. Also, the “Concentration in C57BL/6 Mouse Tissue, Mean” value in data set [3] (setting [6]) was found to be 226 ng/g; in data set [3] (setting [8]), 635 ng/g. In data set [3] (setting [7]), this compound had a Cmax/Dose of 26.7 kg·ng/mL/mg. The compound also gave a C24/Dose in data set [3] (setting [8]) of 1.48 kg·ng/mL/mg. Further, the Tmax is 2 h in data set [3] (setting [7]) and 0.5 to 2 h in data set [3] (setting [4]). The “plasma exposure versus dose” value in data set [3] (mouse, in vivo) is listed as “approximately proportional to dose”. Further, the “tissue C24 (trough) exposure versus dose” value in data set [3] (mouse, in vivo) was “approximately proportional to dose”.
